Source: ChEMBL document CHEMBL6092217 (Eur J Med Chem, 2024)
Calls of active or inactive are those of the source. The rule behind the calls is not given here.

What was measured:
[1] = Toxicity in ICR mouse assessed as effect on hemoglobin level at 10 to 40 mg/kg, iv administered every 2 days and measured after 14 days; format: organism-based; details: in vivo, 336 h, dose 10-40 mg/kg, time 14 day
[2] = biological target: T1, Tubulin (Homo sapiens) (UniProt P68371+Q9H4B7+P0DPH7+P68366+Q13509+Q71U36+P04350+Q3ZCM7+P07437+P68363+Q9BQE3+Q6PEY2+Q13885+Q9BVA1+Q9BUF5); test: Binding affinity to Tubulin colchicine binding site in human HT-29 cells assessed as inhibition of EBI-beta-tubulin adduct formation at 1 to 100 uM preincubated with compound for 2 hrs followed by EBI addition measured after 1.5 hrs by EBI competition based Western blotting analysis; format: cell-based; details: dose 1-100 µM, time 3.5 hrs
[3] = test system: HT-29; test: Induction of cell cycle arrest in human HT-29 cells assessed as accumulation of cells at S phase at 50 nM incubated for 24 hrs by flow cytometry analysis (reference value: 20.8 %); format: functional
[4] = test system: PC-3; test: Antiproliferative activity against human PC-3 cells assessed as cell viability incubated for 72 hrs by MTT assay; format: functional, cell-based; details: PC-3, 72 h
[5] = test system: HT-29; test: Antitumor activity against human HT-29 cells xenografted in BALB/c mouse assessed as reduction in CD31 expression at 10 to 40 mg/kg, iv measured after 21 days by immunohistochemical analysis; format: functional, organism-based; details: dose 10-40 mg/kg, time 21.0 day
[6] = test system: HT-29; test: Induction of apoptosis in human HT-29 cells assessed as necrotic cells at 50 nM incubated for 24 hrs by FITC/PI staining based flow cytometry analysis (reference value: 0.017 %); format: functional
[7] = test system: HT-29; test: Induction of apoptosis in human HT-29 cells assessed as viable cells at 100 nM incubated for 24 hrs by FITC/PI staining based flow cytometry analysis (reference value: 91.6%); format: functional; details: read-out: Activity
[8] = biological target: T1, Tubulin (Homo sapiens); test: Inhibition of tubulin polymerization in human HT-29 cells assessed as downregulation of acetylated alpha-tubulin expression 50 to 200 nM incubated for 24 hrs by Western blot analysis; format: cell-based; details: dose 50-200 nM
[9] = test system: HUVEC; test: Inhibition of tube formation in HUVEC cells incubated for 6 hrs by inverted microscopic analysis; format: functional, cell-based; details: Homo sapiens, dose 50-100 nM
[10] = test system: A549; test: Inhibition of cell invasion in human A549 cells measured for 24 hrs by Transwell assay; format: functional, cell-based; details: dose 50-100 nM
[11] = AUC (0 to t) in Sprague-Dawley rat at 5 mg/kg, iv measured upto 24 hrs by HPLC-MS analysis; format: ADME, organism-based; details: in vivo
[12] = test system: HT-29; test: Induction of cell cycle arrest in human HT-29 cells assessed as accumulation of cells at G2 phase at 50 nM incubated for 24 hrs by flow cytometry analysis (reference value: 13 %); format: functional
[13] = test system: HT-29; test: Induction of apoptosis in human HT-29 cells assessed as necrotic cells at 100 nM incubated for 24 hrs by FITC/PI staining based flow cytometry analysis (reference value: 0.017 %); format: functional
[14] = Toxicity in ICR mouse assessed as effect on ALT level at 10 to 40 mg/kg, iv administered every 2 days and measured after 14 days; format: organism-based; details: in vivo, 336 h, dose 10-40 mg/kg, time 14 day
[15] = test system: HT-29; test: Induction of cell cycle arrest in human HT-29 cells assessed as accumulation of cells at G2 phase at 100 nM incubated for 24 hrs by flow cytometry analysis (reference value: 13 %); format: functional
[16] = test system: HepG2; test: Antiproliferative activity against human HepG2 cells assessed as cell viability incubated for 72 hrs by MTT assay; format: functional, cell-based; details: HepG2, 72 h
[17] = Toxicity in BALB/c mouse assessed as heart damage at 10 to 40 mg/kg, iv measured after 21 days by H and E staining based analysis; format: organism-based; details: in vivo, 504 h, dose 10-40 mg/kg, time 21 day
[18] = test system: HT-29; test: Induction of apoptosis in human HT-29 cells assessed as early apoptotic cells at 50 nM incubated for 24 hrs by FITC/PI staining based flow cytometry analysis (reference value: 8.14%); format: functional
[19] = Clerance in Sprague-Dawley rat at 5 mg/kg, iv measured upto 24 hrs by HPLC-MS analysis; format: ADME, organism-based; details: in vivo
[20] = test system: Mitochondrial membrane; test: Induction of mitochondrial membrane potential loss in human HT-29 cells assessed as increase in green fluorescence at 50 to 100 nM incubated for 24 hrs by JC-1 staining based confocal microscopic analysis; format: cell membranes; details: dose 50-100 nM
[21] = test system: HT-29; test: Induction of apoptosis in human HT-29 cells assessed as upregulation of cleaved PARP level at 50 to 200 nM incubated for 24 hrs by Western blot analysis; format: functional, cell-based; details: dose 50-200 nM
[22] = Toxicity in ICR mouse assessed as effect on CK level at 10 to 40 mg/kg, iv administered every 2 days and measured after 14 days; format: organism-based; details: in vivo, 336 h, dose 10-40 mg/kg, time 14 day
[23] = test system: Mitochondrial membrane; test: Induction of mitochondrial membrane potential loss in human HT-29 cells assessed as decrease in red fluorescence at 50 to 100 nM incubated for 24 hrs by JC-1 staining based confocal microscopic analysis; format: cell membranes; details: dose 50-100 nM
[24] = Toxicity in ICR mouse assessed as effect on granulocytes count at 10 to 40 mg/kg, iv administered every 2 days and measured after 14 days; format: organism-based; details: in vivo, 336 h, dose 10-40 mg/kg, time 14 day
[25] = test system: HT-29; test: Induction of cell cycle arrest in human HT-29 cells assessed as accumulation of cells at S phase at 100 nM incubated for 24 hrs by flow cytometry analysis (reference value: 20.8 %); format: functional
[26] = test system: HT-29; test: Antitumor activity against human HT-29 cells xenografted in BALB/c mouse assessed as tumor growth inhibition at 10 mg/kg, iv measured after 21 days; format: functional; details: HT-29, 504 h, time 21 day, read-out: TGI
[27] = Binding affinity to porcine brain tubulin assessed as dissociation constant measured after 20 mins by fluorescence based analysis; set-up: species or system Sus scrofa
[28] = test system: HT-29; test: Inhibition of colony formation in human HT-29 cells; format: functional, cell-based; details: dose 25-200 nM
[29] = test system: HT-29; test: Induction of apoptosis in human HT-29 cells assessed as late apoptotic cells at 100 nM incubated for 24 hrs by FITC/PI staining based flow cytometry analysis (reference value: 0.20%); format: functional
[30] = test system: Mitochondrial membrane; test: Induction of mitochondrial membrane potential loss in human HT-29 cells incubated for 24 hrs by JC-1 staining based confocal microscopic analysis; format: cell membranes; details: dose 50-100 nM
[31] = test system: HT-29; test: Induction of apoptosis in human HT-29 cells assessed as necrotic cells at 200 nM incubated for 24 hrs by FITC/PI staining based flow cytometry analysis (reference value: 0.017 %); format: functional
[32] = test system: HT-29; test: Induction of cell cycle arrest in human HT-29 cells assessed as accumulation of cells at G1 phase at 100 nM incubated for 24 hrs by flow cytometry analysis (reference value: 67.6%); format: functional
[33] = test system: HT-29; test: Induction of cell cycle arrest in human HT-29 cells assessed as accumulation of cells at G1 phase at 200 nM incubated for 24 hrs by flow cytometry analysis (reference value: 67.6%); format: functional
[34] = Toxicity in BALB/c mouse assessed as kidney damage at 10 to 40 mg/kg, iv measured after 21 days by H and E staining based analysis; format: organism-based; details: in vivo, 504 h, dose 10-40 mg/kg, time 21 day
[35] = test system: HT-29; test: Induction of cell cycle arrest in human HT-29 cells assessed as reduction in p-CDC2 expression incubated for 24 hrs by Western blot analysis; format: functional, cell-based; details: dose 50-200 nM

For COc1ccc(N(C)c2nc(/C=C/c3cccc(OC)c3)nc3ccccc23)cc1, the Activity [1] was “Non-toxic”, the inhibition [2] was “Active” and the Activity [3] was 16.5%. The IC50 [4] was 130 nM, the Activity [5] was “Active” and the Activity [6] was 1.79%. For the same compound, the viability at 0.1 µM [7] was 67.2%, the inhibition [8] was “Active” and the inhibition [9] was “Dose-dependent-effect”. For the same compound, the inhibition [10] was “Dose-dependent-effect”, the AUC(0-t) at 24 h [11] was 3820 ng·h/mL and the Activity [12] was 17.8%. The Activity [13] was 2.72%, the Activity [14] was “Non-toxic” and the Activity [15] was 39.8%. The IC50 [16] was 190 nM, the Activity [17] was “Non-toxic” and the Activity [18] was 12.7%. For the same compound, the clearance [19] was 22.2 mL/min/kg, the Activity [20] was “Active” and the Activity [21] was “Active”. The Activity [22] was “Non-toxic”, the Activity [23] was “Active” and the Activity [24] was “Non-toxic”. It also gave an Activity [25] of 24.9%, an inhibition in vivo at 10 mg/kg [26] of 53% and a Kd [27] of 8.79 µM. For the same compound, the inhibition [28] was “Dose-dependent-effect”, the Activity [29] was 27.2% and the Activity [30] was “Dose-dependent-effect”. It also gave an Activity [31] of 1.36%, an Activity [32] of 35.6% and an Activity [33] of 23.5%. The Activity [34] was “Non-toxic” and the Activity [35] was “Dose-dependent-effect”.
